# In EP1339694B1 (F. HOFFMANN-LA ROCHE AG, priority 2000, dated 2002):
# Where two headings read alike, the source gives them in different places.
# Target: T1, Human Platelet IP Receptor (Homo sapiens, UniProt P43119)
# T1 construct: 250 ml Platelet Rich Plasma was transferred into 250 ml centrifuge tubes and spun at 6000 g; from tissue; host or cells: membranes prepared from platelets (platelet rich plasma)
# Assay: In vitro Human Platelet IP Receptor Radioligand Binding Assay
# Procedure: In vitro Human Platelet IP Receptor Radioligand Binding Assay
# The in vitro Human Platelet IP Receptor Binding Assay measures the strength of a potential drug's binding affinity to its intended target.
# The following buffers were prepared using the purest available water.
# 250 ml Platelet Rich Plasma was transferred into 250 ml centrifuge tubes and spun at 6000 g for 10 min at 20 °C. Pellets were then resuspended in IP lysis buffer and homogenized using a polytron(setting 7, 1x20 sec. burst), brought up to a final volume of 180 ml and centrifuged at 40000 g for 15 min at 4 °C. The pellets were then resuspended in IP assay buffer, protein density determined by BCA method (Pierce) and stored in 2.0 ml vials at -80 °C for subsequent assay use.
# To obtain at least 80 % specific binding, 50 µg protein/assay tube was used in a competition experiment. The final radioligand concentration was 1 to 3E-8 M.
# The membranes were thawed at room temperature and then diluted in assay buffer to the appropriate concentration. First buffer, drug, radioligand, and lastly, membranes were added to the assay tubes. […] The assay tubes were filtered onto 0.3% PEI pre-treated glass fiber filtermats (GF/ B) using Packard Top Count 96 well cell harvester. The tubes were rinsed three times with ice cold 20mM Tris-HCl, 5mM MgCl2, pH=7.4 (3 x 0.5 ml/sample). Bound radioactivity was determined using liquid scintillation counting.
# [1] = human platelet membranes, radioligand competition, 25 °C for 60 min, read-out: Affinity towards the Human Platelet IP Receptor (pKi) (converted)
# T1 sequence (P43119 whole entry): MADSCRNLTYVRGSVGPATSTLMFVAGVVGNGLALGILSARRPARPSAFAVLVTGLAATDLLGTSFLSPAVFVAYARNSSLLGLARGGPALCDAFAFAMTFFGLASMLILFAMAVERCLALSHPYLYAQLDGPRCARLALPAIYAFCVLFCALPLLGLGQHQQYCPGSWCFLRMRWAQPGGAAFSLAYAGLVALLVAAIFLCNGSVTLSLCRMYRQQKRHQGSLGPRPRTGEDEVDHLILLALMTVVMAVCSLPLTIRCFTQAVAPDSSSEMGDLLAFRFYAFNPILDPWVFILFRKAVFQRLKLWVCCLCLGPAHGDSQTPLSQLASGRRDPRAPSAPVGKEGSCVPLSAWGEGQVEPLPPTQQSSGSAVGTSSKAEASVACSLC
SMILES,Ki,Ki [1]
O=C(CCc1ccc(NC2=NCCN2)cc1)c1ccc(N2CCN(C(=O)c3ccco3)CC2)cc1,0.468 nM,
O=C(CCc1ccc(NC2=NCCN2)cc1)c1ccc(Oc2ccccc2)cc1,,20 nM
"O=C(CCc1ccc(NC2=NCCN2)cc1)c1ccc(Cl)cc1Cl [1-(2,4-dichlorophenyl)-3-[4-(4,5-dihydro-1H-imidazol-2-ylamino)phenyl]-propan-1-one]",,0.282 nM
"O=C(CCc1ccc(NC2=NCCN2)cc1)c1ccc(F)cc1F [1-(2,4-difluorophenyl)-3-[4-(4,5-dihydro-1H-imidazol-2-ylamino)phenyl]-propan-1-one]",,56.2 nM
"O=C(CCc1ccc(NC2=NCCN2)cc1)c1ccc(Cl)c(Cl)c1 [1-(3,4-dichlorophenyl)-3-[4-(4,5-dihydro-1H-imidazol-2-ylamino)phenyl]-propan-1-one]",,9.55 nM
"O=C(CCc1ccc(NC2=NCCN2)cc1)c1ccc(F)c(F)c1 [1-(3,4-difluorophenyl)-3-[4-(4,5-dihydro-1H-imidazol-2-ylamino)phenyl]-propan-1-one]",,22.4 nM
"O=C(CCc1ccc(NC2=NCCN2)cc1)c1cc(F)cc(F)c1 [1-(3,5-difluorophenyl)-3-[4-(4,5-dihydro-1H-imidazol-2-ylamino)phenyl]-propan-1-one]",,0.741 nM
"O=C(CCc1ccc(NC2=NCCN2)cc1)c1cc(F)c(Cl)cc1Cl [1-(4,6-dichloro-3-fluorophenyl)-3-[4-(4,5-dihydro-1H-imidazol-2-ylamino)-phenyl]propan-1-one]",,0.708 nM
"O=C(CCc1ccc(NC2=NCCN2)cc1)c1ccc(Cl)cc1 [1-(4-chlorophenyl)-3-[4-(4,5-dihydro-1H-imidazol-2-ylamino)phenyl]-propan-1-one]",,0.398 nM
"CC(=O)N1CCN(c2ccc(C(=O)CCc3ccc(NC4=NCCN4)cc3)cc2)CC1 [1-[4-(4-acetylpiperazin-1-yl)phenyl]-3-[4-(4,5-dihydro-1H-imidazol-2-ylamino)-phenyl]propan-1-one]",,6.31 nM
"O=C(CCc1ccc(NC2=NCCN2)cc1)c1ccc(Cl)c(Cl)c1Cl [3-[4-(4,5-dihydro-1H-imidazol-2-ylamino)phenyl]-1-(2,3,4-trichlorophenyl)-propan-1-one]",,1.74 nM
"COc1ccc(C(=O)CCc2ccc(NC3=NCCN3)cc2)c(F)c1 [3-[4-(4,5-dihydro-1H-imidazol-2-ylamino)phenyl]-1-(2-fluoro-4-methoxy-phenyl)-propan-1-one]",,1 nM
"O=C(CCc1ccc(NC2=NCCN2)cc1)c1ccccc1F [3-[4-(4,5-dihydro-1H-imidazol-2-ylamino)phenyl]-1-(2-fluorophenyl)propan-1-one]",,0.447 nM
"O=C(CCc1ccc(NC2=NCCN2)cc1)c1cccc(F)c1 [3-[4-(4,5-dihydro-1H-imidazol-2-ylamino)phenyl]-1-(3-fluorophenyl)propan-1-one]",,0.676 nM
"O=C(CCc1ccc(NC2=NCCN2)cc1)c1ccc(OCc2ccccc2)cc1 [3-[4-(4,5-dihydro-1H-imidazol-2-ylamino)phenyl]-1-(4-benzyloxyphenyl)-propan-1-one]",,11.2 nM
"CC(C)Oc1ccc(C(=O)CCc2ccc(NC3=NCCN3)cc2)cc1 [3-[4-(4,5-dihydro-1H-imidazol-2-ylamino)phenyl]-1-(4-isopropoxyphenyl)-propan-1-one]",,0.437 nM
"O=C(CCc1ccc(NC2=NCCN2)cc1)c1ccc(-c2ccccc2)cc1 [3-[4-(4,5-dihydro-1H-imidazol-2-ylamino)phenyl]-1-(4-phenylphenyl)-propan-1-one]",,1.48 nM

SMILES,Ki,Ki [1]
"COc1ccc2cc(C(=O)CCc3ccc(NC4=NCCN4)cc3)ccc2c1 [3-[4-(4,5-dihydro-1H-imidazol-2-ylamino)phenyl]-1-(6-methoxynaphthalen-2-yl)-propan-1-one]",,0.427 nM
"O=C(CCc1ccc(NC2=NCCN2)cc1)c1cccc2ccccc12 [3-[4-(4,5-dihydro-1H-imidazol-2-ylamino)phenyl]-1-(naphthalen-1-yl)-propan-1-one]",,1.02 nM
"O=C(CCc1ccc(NC2=NCCN2)cc1)c1ccc2ccccc2c1 [3-[4-(4,5-dihydro-1H-imidazol-2-ylamino)phenyl]-1-(naphthalen-2-yl)propan-1-one]",,4.9 nM
"O=C(CCc1ccc(NC2=NCCN2)cc1)c1ccccc1 [3-[4-(4,5-dihydro-1H-imidazol-2-ylamino)phenyl]-1-(phenyl)propan-1-one]",,3.16 nM
"CCOC(=O)N1CCN(c2ccc(C(=O)CCc3ccc(NC4=NCCN4)cc3)c(F)c2)CC1 [3-[4-(4,5-dihydro-1H-imidazol-2-ylamino)phenyl]-1-[4-(4-ethoxycarbonyl-piperazin-1-yl)-2-fluorophenyl]propan-1-one]",,67.6 nM
"CCNC(=O)N1CCN(c2ccc(C(=O)CCc3ccc(NC4=NCCN4)cc3)cc2)CC1 [3-[4-(4,5-dihydro-1H-imidazol-2-ylamino)phenyl]-1-[4-(4-ethylamino-carbonyl-piperazin-1-yl)phenyl]propan-1-one]",,38.9 nM
"CN1CCN(c2ccc(C(=O)CCc3ccc(NC4=NCCN4)cc3)cc2)CC1 [3-[4-(4,5-dihydro-1H-imidazol-2-ylamino)phenyl]-1-[4-(4-methylpiperazin-1-yl)-phenyl]propan-1-one]",,7.08 nM
"CCCOC(=O)N1CCN(c2ccc(C(=O)CCc3ccc(NC4=NCCN4)cc3)cc2)CC1 [3-[4-(4,5-dihydro-1H-imidazol-2-ylamino)phenyl]-1-[4-(4-propoxycarbonyl-piperazin-1-yl)phenyl]propan-1-one]",,58.9 nM
"O=C(CCc1ccc(NC2=NCCN2)cc1)c1ccc(F)cc1 [Example 1, 3-[4-(4,5-Dihydro-1H-imidazol-2-ylamino)phenyl]-1-(4-fluorophenyl)propan-1-one]",,0.316 nM
"O=C(CCc1ccc(NC2=NCCN2)cc1)c1ccc(N2CCOCC2)cc1 [Example 3, 3-[4-(4,5-Dihydro-1H-imidazol-2-ylamino)phenyl]-1-(4-morpholin-4-ylphenyl)-propan-1-one]",5.25 nM,
"O=C(CCc1ccc(NC2=NCCN2)cc1)c1ccc(N2CCOCC2)cc1F [Example 4, 3-[4-(4,5-Dihydro-1H-imidazol-2-ylamino)phenyl]-1-(2-fluoro-4-morpholin-4-yl-phenyl)propan-1-one]",,18.2 nM
"CCOC(=O)N1CCN(c2ccc(C(=O)CCc3ccc(NC4=NCCN4)cc3)cc2)CC1 [Example 5, 3-[4-(4,5-Dihydro-1H-imidazol-2-ylamino)phenyl]-1-[4-(4-ethoxycarbonyl-piperazin-1-yl)-phenyl]propan-1-one]",,9.33 nM
"CS(=O)(=O)N1CCN(c2ccc(C(=O)CCc3ccc(NC4=NCCN4)cc3)cc2)CC1 [Example 6, 3-[4-(4,5-Dihydro-1H-imidazol-2-ylamino)phenyl]-1-[4-(4-methanesulfonyl-piperazin-1-yl)phenyl]propan-1-one]",,28.2 nM
"O=C(CCCc1ccc(NC2=NCCN2)cc1)c1ccc(F)cc1 [Example 8, 4-[4-(4,5-Dihydro-1H-imidazol-2-ylamino)phenyl]-1-(4-fluorophenyl)butan-1-one]",,3.09 nM
"O=C(COc1ccc(NC2=NCCN2)cc1)c1ccc2c(c1)OCCO2 [Example 9, 1-(2,3-Dihydrobenzo[1,4]dioxin-6-yl)-2-[4-(4,5-dihydro-1H-imidazol-2-ylamino)-phenoxy] ethanone]",,44.7 nM
"COc1ccc(C(=O)COc2ccc(NC3=NCCN3)cc2)cc1 [Example 10, 2-[4-(4,5-Dihydro-1H-imidazol-2-ylamino)phenoxy]-1-(4-methoxyphenyl)ethanone]",,2.75 nM
